Measured values published in patent publication US20070128217A1 (priority 2003, published 2007).

What was measured:
[1] = test system: rabbit serum obtained by immunizing a rabbit with the SARS-CoV strain Frankfurt 1; format: binding; set-up: Binding of a rabbit serum to linear peptides / Binding of a rabbit serum to looped peptides / Rabbit serum linear peptides / Rabbit serum looped peptides / Binding of a rabbit serum to linear peptides of protein N of SARS-CoV Urbani (Rabbit serum linear peptides) / Binding of a rabbit serum to looped/cyclic peptides of protein N of SARS-CoV Urbani (Rabbit serum looped peptides): unit not given here
[2] = test system: recombinant human anti-SARS-CoV antibody 03-018; format: binding; set-up: Binding of antibody 03-018 to linear peptides of the N protein of SARS-CoV Urbani / Binding of antibody 03-018 to looped/cyclic peptides of the N protein of SARS-CoV Urbani: unit not given here
[3] = test system: control sera (pooled serum of ten healthy LUMC hospital workers; commercial negative donor pooled serum from the Dutch bloodbank); format: binding, human; set-up: Binding of Control serum LUMC to linear peptides / Binding of Control serum Blood-bank to linear peptides / Binding of Control serum LUMC to looped peptides / Binding of Control Serum Blood-Bank to Looped peptides / Binding of Control serum LUMC to linear peptides of the protein M of SARS-CoV Urbani / Binding of Control serum Blood-bank to linear peptides of the protein M of SARS-CoV Urbani / Binding of Control serum LUMC to looped peptides of the protein M of SARS-CoV Urbani / Binding of Control Serum Blood-Bank to Looped peptides of the protein M of SARS-CoV Urbani: unit not given here
[4] = test system: antibodies in sera from SARS patients (sera 1a, 1b, 2, 6, 37, 62, London, SARS-yellow, SARS-green); format: binding, human; set-up: Binding of serum 6 to linear peptides of protein X1 of SARS-CoV Urbani / Binding of serum 37 to linear peptides of protein X1 of SARS-CoV Urbani / Binding of serum 6 to looped/cyclic peptide (PEPSCAN-ELISA) / Binding of serum 37 to looped/cyclic peptide (PEPSCAN-ELISA) / Binding of serum 37 to looped/cyclic peptides of protein X1 of SARS-CoV Urbani / Binding of serum 6 to linear peptides of protein X2 / Binding of serum 37 to linear peptides of protein X2 / Binding of serum 37 to looped/cyclic peptides of protein X2 of SARS-CoV Urbani / Binding of serum 6 to linear peptides of protein M of SARS-CoV Urbani / Binding of serum 37 to linear peptides of protein M of SARS-CoV Urbani / Binding of serum 6 to looped/cyclic peptides of protein M of SARS-CoV Urbani / Binding of serum 37 to looped/cyclic peptides of protein M of SARS-CoV Urbani / Binding of serum 6 to linear peptides of protein X3 of SARS-CoV Urbani / Binding of serum 37 to linear peptides of protein X3 of SARS-CoV Urbani / Binding of serum 37 to looped/cyclic peptides of protein X3 of SARS-CoV Urbani / Binding of serum 6 to linear peptides of protein X4 of SARS-CoV Urbani / Binding of serum 37 to linear peptides of protein X4 of SARS-CoV Urbani / Binding of serum 37 to looped/cyclic peptides of protein X4 of SARS-CoV Urbani / Binding of serum 6 to linear peptides of protein X5 of SARS-CoV Urbani / Binding of serum 37 to linear peptides of protein X5 of SARS-CoV Urbani / Binding of serum 37 to looped/cyclic peptides of protein X5 of SARS-CoV Urbani / Binding of serum 6 to linear peptides of protein N of SARS-CoV Urbani / Binding of serum 37 to linear peptides of protein N of SARS-CoV Urbani / Binding of serum 6 to linear peptide (PEPSCAN-ELISA) / Binding of serum 1a to looped/cyclic peptides of protein N of SARS-CoV Urbani / Binding of serum 1b to looped/cyclic peptides of protein N of SARS-CoV Urbani / Binding of serum 2 to looped/cyclic peptides of protein N of SARS-CoV Urbani / Binding of serum 6 to looped/cyclic peptides of protein N of SARS-CoV Urbani / Binding of serum 37 to looped/cyclic peptides of protein N of SARS-CoV Urbani / Binding of serum 62 to looped/cyclic peptides of protein N of SARS-CoV Urbani / Binding of serum London to looped/cyclic peptides of protein N of SARS-CoV Urbani / Binding of serum SARS-green to looped/cyclic peptides of protein N of SARS-CoV Urbani: unit not given here

Row | Sequence | Binding of a rabbit serum to linear peptides of protein N of SARS-CoV Urbani (Rabbit serum linear peptides) [1] | Binding of a rabbit serum to looped/cyclic peptides of protein N of SARS-CoV Urbani (Rabbit serum looped peptides) [1] | Binding of antibody 03-018 to linear peptides of the N protein of SARS-CoV Urbani [2] | Binding of antibody 03-018 to looped/cyclic peptides of the N protein of SARS-CoV Urbani [2] | Binding of Control Serum Blood-Bank to Looped peptides [3] | Binding of Control serum Blood-bank to linear peptides [3] | Binding of Control serum LUMC to linear peptides [3] | Binding of Control serum LUMC to looped peptides [3] | Binding of serum 1a to linear peptides of protein N of SARS-CoV Urbani [4] | Binding of serum 1a to looped/cyclic peptides of protein N of SARS-CoV Urbani [4] | Binding of serum 1b to linear peptides of protein N of SARS-CoV Urbani [4] | Binding of serum 1b to looped/cyclic peptides of protein N of SARS-CoV Urbani [4] | Binding of serum 2 to linear peptides of protein N of SARS-CoV Urbani [4] | Binding of serum 2 to looped/cyclic peptides of protein N of SARS-CoV Urbani [4] | Binding of serum 6 to looped/cyclic peptides of protein N of SARS-CoV Urbani [4] | Binding of serum 37 to looped/cyclic peptides of protein N of SARS-CoV Urbani [4] | Binding of serum 62 to looped/cyclic peptides of protein N of SARS-CoV Urbani [4] | Binding of serum London to looped/cyclic peptides of protein N of SARS-CoV Urbani [4] | Binding of serum SARS-green to looped/cyclic peptides of protein N of SARS-CoV Urbani [4] | Binding of serum SARS-yellow to looped/cyclic peptides of protein N of SARS-CoV Urbani [4] | other results
1 | IVWVATEGALNTPKD | 0.1 | 0.2 | 0.1 | 0.2 | 0.4 | 0.8 | 0.8 | 0.5 | 0.2 | 0.3 | 0.1 | 0.2 | 0.2 | 0.3 | 0.1 | 0.5 | 0.3 | 0.3 | 0.9 | 0.2 | Binding of serum 6 to linear peptides of protein N of SARS-CoV Urbani [4]: 0.2; Binding of serum 37 to linear peptides of protein N of SARS-CoV Urbani [4]: 0.7; Binding of serum 62 to linear peptides of protein N of SARS-CoV Urbani [4]: 0.7; Binding of serum London to linear peptides of protein N of SARS-CoV Urbani [4]: 0.6; Binding of serum SARS-green to linear peptides of protein N of SARS-CoV Urbani [4]: 0.3; Binding of serum SARS-yellow to linear peptides of protein N of SARS-CoV Urbani [4]: 0.6
2 | TALALLLLDRLNQLE | 0.2 | 0.5 | 0.1 | 0.2 | 0.8 | 0.7 | 0.7 | 0.8 | – | 0.4 | – | 0.3 | – | 0.5 | 0.3 | 0.8 | 0.7 | 0.5 | 0.7 | 0.5 | Binding of serum 1a to linear peptide (PEPSCAN-ELISA) [4]: 0.3; Binding of serum 1b to linear peptide (PEPSCAN-ELISA) [4]: 0.2; Binding of serum 2 to linear peptide (PEPSCAN-ELISA) [4]: 0.2; Binding of serum 6 to linear peptide (PEPSCAN-ELISA) [4]: 0.2; Binding of serum 37 to linear peptide (PEPSCAN-ELISA) [4]: 0.7; Binding of serum 62 to linear peptide (PEPSCAN-ELISA) [4]: 0.7; Binding of serum London to linear peptide (PEPSCAN-ELISA) [4]: 0.5; Binding of serum SARS-green to linear peptide (PEPSCAN-ELISA) [4]: 0.8; Binding of serum SARS-yellow to linear peptide (PEPSCAN-ELISA) [4]: 0.6
3 | NPNNNAATVLQLPQG | 0.1 | 0.3 | 0.1 | 0.3 | 0.8 | 0.9 | 0.9 | 0.9 | 0.4 | 0.4 | 0.2 | 0.4 | 0.4 | 0.5 | 0.3 | 0.9 | 0.9 | 0.5 | 0.7 | 0.5 | Binding of serum 6 to linear peptides of protein N of SARS-CoV Urbani [4]: 0.3; Binding of serum 37 to linear peptides of protein N of SARS-CoV Urbani [4]: 0.8; Binding of serum 62 to linear peptides of protein N of SARS-CoV Urbani [4]: 0.9; Binding of serum London to linear peptides of protein N of SARS-CoV Urbani [4]: 0.8; Binding of serum SARS-green to linear peptides of protein N of SARS-CoV Urbani [4]: 0.6; Binding of serum SARS-yellow to linear peptides of protein N of SARS-CoV Urbani [4]: 0.8
4 | DDFSRQLQNSMSGAS | 0.5 | 0.3 | 0.2 | 0.2 | – | – | – | – | 0.2 | 0.3 | 0.1 | 0.1 | 0.2 | 0.3 | 0.1 | 0.4 | 0.3 | 0.2 | 0.2 | 0.1 | Control Serum Blood-Bank Looped peptides [3]: 0.3; Control serum Blood-bank linear peptides [3]: 0.8; Control serum LUMC linear peptides [3]: 0.6; Control serum LUMC looped peptides [3]: 0.3; Binding of serum 6 to linear peptides of protein N of SARS-CoV Urbani [4]: 0.2; Binding of serum 37 to linear peptides of protein N of SARS-CoV Urbani [4]: 0.8; Binding of serum 62 to linear peptides of protein N of SARS-CoV Urbani [4]: 0.7; Binding of serum London to linear peptides of protein N of SARS-CoV Urbani [4]: 0.7; Binding of serum SARS-green to linear peptides of protein N of SARS-CoV Urbani [4]: 0.4; Binding of serum SARS-yellow to linear peptides of protein N of SARS-CoV Urbani [4]: 0.6
